Laboratory results reported in ChEMBL document CHEMBL3994622, “Design and synthesis of new RAF kinase-inhibiting antiproliferative quinoline derivatives. Part 2: Diarylurea derivatives” (Eur J Med Chem, 2017).

Tests used:
Type in all cases: functional
U-251 = experiment: Growth inhibition of human U251 cells assessed as cell growth at 10 uM incubated for 48 hrs by sulforhodamine B assay relative to control; conditions: U-251, 48 h, read-out: Activity
HCT-15 = experiment: Growth inhibition of human HCT15 cells assessed as cell growth at 10 uM incubated for 48 hrs by sulforhodamine B assay relative to control; conditions: HCT-15, 48 h, read-out: Activity
MOLT-4 = experiment: Growth inhibition of human MOLT4 cells assessed as cell growth at 10 uM incubated for 48 hrs by sulforhodamine B assay relative to control; conditions: MOLT-4, 48 h, read-out: Activity
SK-MEL-2 = experiment: Growth inhibition of human SK-MEL-2 cells assessed as cell growth at 10 uM incubated for 48 hrs by sulforhodamine B assay relative to control; conditions: SK-MEL-2, 48 h, read-out: Activity
MDA-MB-435 = experiment: Growth inhibition of human MDA-MB-435 cells assessed as cell growth at 10 uM incubated for 48 hrs by sulforhodamine B assay relative to control; conditions: MDA-MB-435, 48 h, read-out: Activity
HL-60(TB) = experiment: Growth inhibition of human HL-60(TB) cells assessed as cell growth at 10 uM incubated for 48 hrs by sulforhodamine B assay relative to control; conditions: HL-60, 48 h, read-out: Activity
SK-MEL-28 = experiment: Growth inhibition of human SK-MEL-28 cells assessed as cell growth at 10 uM incubated for 48 hrs by sulforhodamine B assay relative to control; conditions: SK-MEL-28, 48 h, read-out: Activity
NCI-H23 = experiment: Growth inhibition of human NCI-H23 cells assessed as cell growth at 10 uM incubated for 48 hrs by sulforhodamine B assay relative to control; conditions: NCI-H23, 48 h, read-out: Activity
786-0 = experiment: Growth inhibition of human 786-0 cells assessed as cell growth at 10 uM incubated for 48 hrs by sulforhodamine B assay relative to control; conditions: 786-0, 48 h, read-out: Activity
Hs-578T = experiment: Growth inhibition of human Hs 578T cells assessed as cell growth at 10 uM incubated for 48 hrs by sulforhodamine B assay relative to control; conditions: read-out: Activity
SN12C = experiment: Growth inhibition of human SN12C cells assessed as cell growth at 10 uM incubated for 48 hrs by sulforhodamine B assay relative to control; conditions: read-out: Activity
HCT-116 = experiment: Growth inhibition of human HCT116 cells assessed as cell growth at 10 uM incubated for 48 hrs by sulforhodamine B assay relative to control; conditions: HCT-116, 48 h, read-out: Activity
BT-549 = experiment: Growth inhibition of human BT549 cells assessed as cell growth at 10 uM incubated for 48 hrs by sulforhodamine B assay relative to control; conditions: BT-549, 48 h, read-out: Activity
SK-OV-3 = experiment: Growth inhibition of human SKOV3 cells assessed as cell growth at 10 uM incubated for 48 hrs by sulforhodamine B assay relative to control; conditions: SK-OV-3, 48 h, read-out: Activity
COLO 205 = experiment: Growth inhibition of human COLO205 cells assessed as cell growth at 10 uM incubated for 48 hrs by sulforhodamine B assay relative to control; conditions: COLO 205, 48 h, read-out: Activity
SF-539 = experiment: Growth inhibition of human SF539 cells assessed as cell growth at 10 uM incubated for 48 hrs by sulforhodamine B assay relative to control; conditions: SF-539, 48 h, read-out: Activity
OVCAR-3 = experiment: Growth inhibition of human OVCAR3 cells assessed as cell growth at 10 uM incubated for 48 hrs by sulforhodamine B assay relative to control; conditions: OVCAR-3, 48 h, read-out: Activity
OVCAR-4 = experiment: Growth inhibition of human OVCAR4 cells assessed as cell growth at 10 uM incubated for 48 hrs by sulforhodamine B assay relative to control; conditions: OVCAR-4, 48 h, read-out: Activity
OVCAR-8 = experiment: Growth inhibition of human OVCAR8 cells assessed as cell growth at 10 uM incubated for 48 hrs by sulforhodamine B assay relative to control; conditions: OVCAR-8, 48 h, read-out: Activity
HOP-92 = experiment: Growth inhibition of human HOP92 cells assessed as cell growth at 10 uM incubated for 48 hrs by sulforhodamine B assay relative to control; conditions: HOP-92, 48 h, read-out: Activity
SR = experiment: Growth inhibition of human SR cells assessed as cell growth at 10 uM incubated for 48 hrs by sulforhodamine B assay relative to control; conditions: read-out: Activity
HCC 2998 = experiment: Growth inhibition of human HCC2998 cells assessed as cell growth at 10 uM incubated for 48 hrs by sulforhodamine B assay relative to control; conditions: HCC 2998, 48 h, read-out: Activity
SF-268 = experiment: Growth inhibition of human SF268 cells assessed as cell growth at 10 uM incubated for 48 hrs by sulforhodamine B assay relative to control; conditions: SF-268, 48 h, read-out: Activity
OVCAR-5 = experiment: Growth inhibition of human OVCAR5 cells assessed as cell growth at 10 uM incubated for 48 hrs by sulforhodamine B assay relative to control; conditions: OVCAR-5, 48 h, read-out: Activity
UACC-257 = experiment: Growth inhibition of human UACC257 cells assessed as cell growth at 10 uM incubated for 48 hrs by sulforhodamine B assay relative to control; conditions: UACC-257, 48 h, read-out: Activity
NCI/ADR-RES = experiment: Growth inhibition of human NCI/ADR-RES cells assessed as cell growth at 10 uM incubated for 48 hrs by sulforhodamine B assay relative to control; conditions: read-out: Activity
SNB-75 = experiment: Growth inhibition of human SNB75 cells assessed as cell growth at 10 uM incubated for 48 hrs by sulforhodamine B assay relative to control; conditions: SNB-75, 48 h, read-out: Activity
CAKI-1 = experiment: Growth inhibition of human Caki1 cells assessed as cell growth at 10 uM incubated for 48 hrs by sulforhodamine B assay relative to control; conditions: CAKI-1, 48 h, read-out: Activity
NCI-H460 = experiment: Growth inhibition of human NCI-H460 cells assessed as cell growth at 10 uM incubated for 48 hrs by sulforhodamine B assay relative to control; conditions: NCI-H460, 48 h, read-out: Activity
A549 = experiment: Growth inhibition of human A549/ATCC cells assessed as cell growth at 10 uM incubated for 48 hrs by sulforhodamine B assay relative to control; conditions: A549, 48 h, read-out: Activity
DU-145 = experiment: Growth inhibition of human DU145 cells assessed as cell growth at 10 uM incubated for 48 hrs by sulforhodamine B assay relative to control; conditions: DU-145, 48 h, read-out: Activity
MCF7 = experiment: Growth inhibition of human MCF7 cells assessed as cell growth at 10 uM incubated for 48 hrs by sulforhodamine B assay relative to control; conditions: MCF7, 48 h, read-out: Activity
T47D = experiment: Growth inhibition of human T47D cells assessed as cell growth at 10 uM incubated for 48 hrs by sulforhodamine B assay relative to control; conditions: read-out: Activity

Row | Structure (SMILES) | growth at 10 µM (U-251) [%] | growth at 10 µM (HCT-15) [%] | growth at 10 µM (SK-MEL-2) [%] | growth at 10 µM (MDA-MB-435) [%] | growth at 10 µM (SK-MEL-28) [%] | growth at 10 µM (NCI-H23) [%] | growth at 10 µM (786-0) [%] | growth at 10 µM (Hs-578T) [%] | growth at 10 µM (SN12C) [%] | growth at 10 µM (HCT-116) [%] | growth at 10 µM (BT-549) [%] | growth at 10 µM (SK-OV-3) [%] | growth at 10 µM (COLO 205) [%] | growth at 10 µM (SF-539) [%] | growth at 10 µM (OVCAR-3) [%] | growth at 10 µM (OVCAR-8) [%] | growth at 10 µM (HCC 2998) [%] | growth at 10 µM (SF-268) [%] | growth at 10 µM (OVCAR-5) [%] | growth at 10 µM (UACC-257) [%] | further results
1 | COc1cc2cc(Sc3ccc(NC(=O)Nc4ccc(Cl)c(Cl)c4)cc3)c(C)nc2cc1OC | 70 | 75.9 | 72.6 | 76.7 | 96.5 | 84.7 | 73.4 | 85.6 | 78.8 | 67.9 | 77.8 | 55 | 87.8 | 86 | 73 | 83.6 | 101 | 72.6 | 84.7 | 90 | growth at 10 µM (MOLT-4): 38.1%; growth at 10 µM (HL-60(TB)): 77.3%; growth at 10 µM (OVCAR-4): 78.2%; growth at 10 µM (HOP-92): 71.2%; growth at 10 µM (SR): 52.7%; growth at 10 µM (NCI/ADR-RES): 86.2%; growth at 10 µM (SNB-75): 86.4%; growth at 10 µM (CAKI-1): 64.5%; growth at 10 µM (NCI-H460): 74.6%; growth at 10 µM (A549): 59.5%; growth at 10 µM (DU-145): 75.5%; growth at 10 µM (MCF7): 75.3%
2 | COc1cc2cc(Oc3ccc(NC(=O)Nc4ccc(Cl)c(C(F)(F)F)c4)cc3)c(C)nc2cc1OC | -80.4 | 1.27 | -49.8 | -25.7 | -35.9 | 3.46 | -21.1 | 2.5 | 13.2 | -87.3 | -38.7 | -4.09 | -49.5 | -36.2 | -27.3 | 7.34 | -13.1 | -10.2 | 18 | -12.5 | growth at 10 µM (MOLT-4): -27.9%; growth at 10 µM (HL-60(TB)): -40.6%; growth at 10 µM (T47D): 21.4%; growth at 10 µM (OVCAR-4): 17.1%; growth at 10 µM (HOP-92): -22.3%; growth at 10 µM (SR): -32.5%; growth at 10 µM (NCI/ADR-RES): 2.01%; growth at 10 µM (SNB-75): 12.4%; growth at 10 µM (CAKI-1): -8.92%; growth at 10 µM (NCI-H460): -19.8%; growth at 10 µM (A549): -17.2%; growth at 10 µM (DU-145): 12.7%; growth at 10 µM (MCF7): 2.59%
3 | COc1cc2cc(Oc3ccc(NC(=O)Nc4ccccc4)cc3)c(C)nc2cc1OC | 48 | 64.1 | 78.8 | 89.4 | 96.2 | 87.2 | 94.8 | 78 | 70.7 | 42.6 | 104 | 48.4 | 85.7 | 78 | 67.1 | 71.9 | 105 | 88.1 | 99.7 | 92.4 | growth at 10 µM (MOLT-4): 37.9%; growth at 10 µM (HL-60(TB)): 70.5%; growth at 10 µM (T47D): 97.1%; growth at 10 µM (OVCAR-4): 70.2%; growth at 10 µM (SR): 42.6%; growth at 10 µM (NCI/ADR-RES): 84.3%; growth at 10 µM (SNB-75): 75.8%; growth at 10 µM (CAKI-1): 88.7%; growth at 10 µM (NCI-H460): 69%; growth at 10 µM (A549): 58.4%; growth at 10 µM (DU-145): 88.7%; growth at 10 µM (MCF7): 72.8%
4 | COc1cc2cc(Oc3ccc(NC(=O)Nc4ccc(Cl)c(Cl)c4)cc3)c(C)nc2cc1OC | -32.3 | 18.9 | -7.82 | 12.3 | 44.6 | 8.26 | 20.3 | 45.1 | 22.1 | 10.5 | 28.1 | 28.6 | 4.03 | 38.5 | -10 | 15 | 37.6 | 43.7 | 53 | 1.38 | growth at 10 µM (MOLT-4): 3.69%; growth at 10 µM (HL-60(TB)): 9.64%; growth at 10 µM (T47D): 60.9%; growth at 10 µM (OVCAR-4): 31.9%; growth at 10 µM (HOP-92): -9.31%; growth at 10 µM (SR): 18%; growth at 10 µM (NCI/ADR-RES): 17.1%; growth at 10 µM (SNB-75): 22.4%; growth at 10 µM (CAKI-1): 21.8%; growth at 10 µM (NCI-H460): 3.68%; growth at 10 µM (A549): 4.35%; growth at 10 µM (DU-145): 24.8%; growth at 10 µM (MCF7): 13.8%
5 | COc1cc2cc(Oc3ccc(NC(=O)Nc4ccc(C)cc4)cc3)c(C)nc2cc1OC | 99.9 | 103 | 91.5 | 107 | 109 | 95.5 | 126 | 76.5 | 93 | 107 | 130 | 87.8 | 111 | 108 | 113 | 87.4 | 104 | 80.2 | 110 | 112 | growth at 10 µM (MOLT-4): 82.4%; growth at 10 µM (HL-60(TB)): 93%; growth at 10 µM (T47D): 101%; growth at 10 µM (SR): 83.1%; growth at 10 µM (NCI/ADR-RES): 107%; growth at 10 µM (SNB-75): 56.3%; growth at 10 µM (CAKI-1): 98.2%; growth at 10 µM (NCI-H460): 108%; growth at 10 µM (A549): 102%; growth at 10 µM (DU-145): 102%; growth at 10 µM (MCF7): 94.5%
6 | COc1cc2cc(Oc3ccc(NC(=O)Nc4cc(C(F)(F)F)cc(C(F)(F)F)c4)cc3)c(C)nc2cc1OC | -26.5 | 2.75 | -30.4 | -2.55 | 7.66 | 2.28 | -16.6 | -10.7 | 7.69 | 3.73 | 1.44 | -1.05 | -81.2 | -41 | 1.71 | 14.2 | 21.3 | 15.3 | 14.6 | -4.68 | growth at 10 µM (T47D): 7.52%; growth at 10 µM (OVCAR-4): 27.9%; growth at 10 µM (HOP-92): -25.4%; growth at 10 µM (NCI/ADR-RES): 7.03%; growth at 10 µM (SNB-75): 9.73%; growth at 10 µM (CAKI-1): 6.4%; growth at 10 µM (NCI-H460): 7%; growth at 10 µM (A549): 5.93%; growth at 10 µM (DU-145): 19.5%; growth at 10 µM (MCF7): 0.59%
